According to paper PMC7230731 (Marine Drugs, 2020):

Legend:
Format in all cases: cell-based, human
MCF-7 cells [1] = assay: SRB antiproliferative assay, MCF-7; conditions: for IC50: Homo sapiens, MCF7, 48 h, MCF-7 breast cancer cells, SRB assay, 48 h, mean ± S.D. of three experiments; for potency relative to Staurosporine, MCF-7: ratio of IC50 values, MCF-7 cells
Procedure: 1. Anti-proliferative action toward human breast cell lines […]
and non-tumorigenic human breast epithelial cell line (MCF-10A) have been obtained from American Type Culture Collection (ATCC). The cells were maintained in Dulbecco's modified Eagle's medium (DMEM) supplemented with 10% heat inactivated fetal calf serum (GIBCO), penicillin (100 U/ml) and streptomycin (100 µg/ml) at 37 °C in humidified atmosphere containing 5% CO2. […]
grown in a 25 cm2 flask in 5 ml of culture medium.
The anti-proliferative activity of the tested compounds was measured in vitro using the Sulfo-Rhodamine-B stain (SRB) assay. Briefly, Cells were inoculated in 96-well microtiter plate (5X104 cells/ well) for 24 h before treatment with the tested compounds to allow attachment of cell to the wall of the plate. Tested compounds were dissolved in DMSO at 1 mg/ml immediately before use and diluted to the appropriate volume just before addition to the cell culture. Different concentrations of tested compounds, doxorubicin and sorafenib were added to the cells (three wells were prepared for each […]
atmosphere of 5% CO2. After 48 h cells were fixed, washed, and stained for 30 min with 0.4% (w/v) SRB dissolved in 1% acetic acid. Unbound dye was removed by four washes with 1% acetic acid, and attached stain was recovered with Tris-EDTA buffer. Color intensity was measured in an ELISA reader. The relation between percent of surviving fraction and drug concentration is plotted to get the survival curve for each cell line. […]

Bcl-2 = assay: ELISA immunoassay, Bcl-2 level; conditions: MCF-7 cells; for Bcl-2: IC50 concentration, 48 h
Excerpt: Synchronization of the mitochondrial pathway is headed by the Bcl-2 family of proteins. These proteins are classified into two groups: anti-apoptotic proteins exemplified by Bcl-2 protein and the counteracting pro-apoptotic proteins including Bax protein [21]. As induction of the apoptotic machinery is one of the most useful strategies in cancer therapy, we investigated the effect of our compounds to boost the pro-apoptotic protein; Bax and reduce the anti-apoptotic protein; Bcl-2 in an attempt to explore the underlying mechanism for their cytotoxic activity (Table 1). […] Fortunately, both compounds markedly boosted the level of Bax by 8.3- and 6.4-fold, respectively (Table 4, Figure 3).
Effects of treatment of breast cancer MCF-7 cells with bis-indoles 7e and 9a on the expression levels of the pro-apoptotic markers (Bax, caspase-3, and p53) in addition to the anti-apoptotic protein Bcl-2 marker was assessed by the use of ELISA colorimetric kits as per the manufacturer’s instructions, as described earlier.
The levels of the pro-apoptotic markers (Bax, caspase-3 and p53) as well as the anti-apoptotic marker Bcl-2 were determined using ELISA colorimetric kits per the manufacturer’s instructions. Breast cancer MCF-7 cells were cultured as a monolayer in T-25 flasks and were seeded to attain 30% confluency prior to treatment. Cells were […]
At the end of treatment, cells were collected via trypsinization and centrifuged at 10,000 rpm. The pellet was then rinsed with PBS and lysed in RIPA lysis buffer at 4 °C for 45 min, then centrifuged at 14,000 rpm for 20 min to remove the cellular debris. Lysates were then collected and stored at −80 °C for later protein determination using Pierce BCA Protein Assay Kit according to manufacturer’s recommendations.
The cell lysate was diluted 10 times, and 100 μL ([…]) was added to the wells of four separate microtiter plates for the four ELISA kits that were pre-coated with primary antibodies specific to Bax, Bcl-2, caspase-3 and p53 proteins, respectively. A secondary biotin-linked antibody specific to the protein captured by the primary antibody was further added to bind the captured protein, forming a “sandwich” of specific antibodies around the desired protein in the cell lysate. The streptavidin-HRP complex was then used to bind the biotin-linked secondary antibody through its streptavidin portion. The HRP domain reacted with the added TMB substrate to form a colored product that measured at 450 nm by a plate reader ChroMate-4300 after the reaction was terminated via the addition of stop solution. […]

MCF-7 cells [2] = assay: Annexin V-FITC/PI apoptosis assay; conditions: IC50 concentration; for Total (L.R % + U.R %): early + late apoptosis
Procedure: Annexin V-based flow cytometry analysis is a useful tool to investigate whether cell death is pertaining to physiological apoptosis or nonspecific necrosis. Evaluation of the apoptotic effect of bis-indoles 7e and 9a was carried out using AnxV-FITC/DAPI dual staining assay (Figure 4).
The apoptotic action of bis-indoles 7e and 9a was further explored through the investigation of their effect on the phosphatidylserine externalization in breast cancer MCF-7 cells, using Annexin-V-FITC Apoptosis Detection Kit according to manufacturer’s protocol, as reported earlier. […]
4. Annexin V-FITC Apoptosis Assay
Phosphatidylserine externalization was assayed using Annexin V-FITC/PI apoptosis detection kit (BD Biosciences, USA) according to the manufacturer’s instructions. Breast cancer MCF-7 cells were cultured to a monolayer then treated with bis-indoles 7e and 9a at their IC50 concentration. Briefly, cells were then harvested via trypsinization, and rinsed twice in PBS followed by binding buffer. Moreover, cells were re-suspended in 100 μL of binding buffer with the addition of 1 μL of FITC-Annexin V followed by an incubation period of 30 min at 4 °C. Cells were then rinsed in binding buffer and resuspended in 150 μL of binding buffer with the addition of 1 μL of DAPI (1 μg/μL in PBS). Cells were then analyzed using the flow cytometer BD FACS Canto II and the results were interpreted with FlowJo7.6.4 software (Tree Star, Ashland, OR, USA).

Row | Compound | IC50 (MCF-7 cells [1]) [nM] | potency relative to Staurosporine, MCF-7 (MCF-7 cells [1]) [times] | decrease of Bcl-2 level vs control (Bcl-2) [fold] | Bcl-2 (Bcl-2) | Early Apoptosis (Lower Right %) (MCF-7 cells [2]) [%] | Late Apoptosis (Upper Right %) (MCF-7 cells [2]) [%] | increase in total apoptosis percentage vs control (MCF-7 cells [2]) [fold] | Total (L.R % + U.R %) (MCF-7 cells [2]) [%]
1 | O=C(Cc1c[nH]c2ccccc12)NN=C1C(=O)Nc2ccc([N+](=O)[O-])cc21 [Compound 7e, 2-(1H-Indol-3-yl)-N′-(5-nitro-2-oxoindolin-3-ylidene)acetohydrazide] | 440 ± 10 | 15.5 | 2.25 | 2.07 ± 0.14 ng/mg of Total Protein | 9.56 | 21.76 | 23.7 | 31.32
2 | C=CCN1C(=O)C(=NNC(=O)Cc2c[nH]c3ccccc23)c2ccccc21 [Compound 9a, N′-(1-Allyl-2-oxoindolin-3-ylidene)-2-(1H-indol-3-yl)acetohydrazide] | 1280 ± 40 | 5.3 | 1.74 | 2.67 ± 0.16 ng/mg of Total Protein | 7.01 | 15.20 | 16.8 | 22.21
